Source: PubChem BioAssay (NCI)
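Growth conditions: 96-well plates. Treatment: test compound, 48 hours, 5 concentrations. Analysis: linear interpolation between bracketing concentrations; unreached endpoints set to highest concentration. Definition used: TGI = concentration required for complete inhibition of growth.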

Tests used:
Assay in all cases: growth of human tumour cells (NCI), 48 h
786-0 renal = test system: 786-0 renal
A498 renal = test system: A498 renal
A549 NSCLC = test system: A549 NSCLC
ACHN renal = test system: ACHN renal
BT-549 breast = test system: BT-549 breast
CAKI-1 renal = test system: CAKI-1 renal
CCRF-CEM leukemia = test system: CCRF-CEM leukemia
COLO 205 colon = test system: COLO 205 colon
DU-145 prostate = test system: DU-145 prostate
EKVX NSCLC = test system: EKVX NSCLC
HCC-2998 colon = test system: HCC-2998 colon
HCT-116 colon = test system: HCT-116 colon
HCT-15 colon = test system: HCT-15 colon
HL-60(TB) leukemia = test system: HL-60(TB) leukemia
HOP-62 NSCLC = test system: HOP-62 NSCLC
HOP-92 NSCLC = test system: HOP-92 NSCLC
HS 578T breast = test system: HS 578T breast
HT29 colon = test system: HT29 colon
IGROV1 ovarian = test system: IGROV1 ovarian
K-562 leukemia = test system: K-562 leukemia
LOX IMVI melanoma = test system: LOX IMVI melanoma
M14 melanoma = test system: M14 melanoma
MALME-3M melanoma = test system: MALME-3M melanoma
MCF7 breast = test system: MCF7 breast
MDA-MB-231 breast = test system: MDA-MB-231 breast
MDA-MB-435 = test system: MDA-MB-435
MDA-N = test system: MDA-N
MOLT-4 leukemia = test system: MOLT-4 leukemia
NCI-H226 lung = test system: NCI-H226 lung
NCI-H23 lung = test system: NCI-H23 lung
NCI-H460 lung = test system: NCI-H460 lung
NCI-H522 lung = test system: NCI-H522 lung
NCI/ADR-RES ovarian = test system: NCI/ADR-RES ovarian
OVCAR-3 ovarian = test system: OVCAR-3 ovarian
OVCAR-5 ovarian = test system: OVCAR-5 ovarian
OVCAR-8 ovarian = test system: OVCAR-8 ovarian
PC-3 prostate = test system: PC-3 prostate
RPMI-8226 leukemia = test system: RPMI-8226 leukemia
RXF 393 renal = test system: RXF 393 renal
SF-268 CNS = test system: SF-268 CNS
SF-295 CNS = test system: SF-295 CNS
SF-539 CNS = test system: SF-539 CNS
SK-MEL-2 melanoma = test system: SK-MEL-2 melanoma
SK-MEL-28 melanoma = test system: SK-MEL-28 melanoma
SK-MEL-5 melanoma = test system: SK-MEL-5 melanoma
SK-OV-3 ovarian = test system: SK-OV-3 ovarian
SN12C renal = test system: SN12C renal
SNB-19 CNS = test system: SNB-19 CNS
SW-620 colon = test system: SW-620 colon
TK-10 renal = test system: TK-10 renal
U251 CNS = test system: U251 CNS
UACC-257 melanoma = test system: UACC-257 melanoma
UACC-62 melanoma = test system: UACC-62 melanoma
UO-31 renal = test system: UO-31 renal
OVCAR-4 ovarian = test system: OVCAR-4 ovarian
SNB-75 CNS = test system: SNB-75 CNS

CC(=O)Oc1ccc(N2C(=O)C3c4[nH]c5ccccc5c4C4CCC(C(C)(C)C)CC4C3C2=O)cc1 (stereo not given)
TGI (786-0 renal): 4.31 µM
TGI (A498 renal): 14.7 µM
TGI (A549 NSCLC): 10.7 µM
TGI (ACHN renal): 12.2 µM
TGI (BT-549 breast): 14.9 µM
TGI (CAKI-1 renal): 16 µM
TGI (CCRF-CEM leukemia): 13.2 µM
TGI (COLO 205 colon): 17.5 µM
TGI (DU-145 prostate): 12.2 µM
TGI (EKVX NSCLC): 9.41 µM
TGI (HCC-2998 colon): 5.14 µM
TGI (HCT-116 colon): 4.93 µM
TGI (HCT-15 colon): 12.3 µM
TGI (HL-60(TB) leukemia): 5.47 µM
TGI (HOP-62 NSCLC): 13.5 µM
TGI (HOP-92 NSCLC): 7.84 µM
TGI (HS 578T breast): 8.82 µM
TGI (HT29 colon): 9.38 µM
TGI (IGROV1 ovarian): 19.9 µM
TGI (K-562 leukemia): 10.9 µM
TGI (LOX IMVI melanoma): 14.3 µM
TGI (M14 melanoma): 13.2 µM
TGI (MALME-3M melanoma): 19.4 µM
TGI (MCF7 breast): 13.7 µM
TGI (MDA-MB-231 breast): 4.63 µM
TGI (MDA-MB-435): 22.6 µM
TGI (MDA-N): 14.1 µM
TGI (MOLT-4 leukemia): 94.2 µM
TGI (NCI-H226 lung): 26.1 µM
TGI (NCI-H23 lung): 8.79 µM
TGI (NCI-H460 lung): 5.83 µM
TGI (NCI-H522 lung): 9.93 µM
TGI (NCI/ADR-RES ovarian): 14.7 µM
TGI (OVCAR-3 ovarian): 7.07 µM
TGI (OVCAR-5 ovarian): 14.6 µM
TGI (OVCAR-8 ovarian): 13.5 µM
TGI (PC-3 prostate): 10.4 µM
TGI (RPMI-8226 leukemia): > 100 µM
TGI (RXF 393 renal): 5.64 µM
TGI (SF-268 CNS): 11 µM
TGI (SF-295 CNS): 14.8 µM
TGI (SF-539 CNS): 18.3 µM
TGI (SK-MEL-2 melanoma): 17.8 µM
TGI (SK-MEL-28 melanoma): 14.9 µM
TGI (SK-MEL-5 melanoma): 8.19 µM
TGI (SK-OV-3 ovarian): 24 µM
TGI (SN12C renal): 4.17 µM
TGI (SNB-19 CNS): 9.84 µM
TGI (SW-620 colon): 5.16 µM
TGI (TK-10 renal): 10.7 µM
TGI (U251 CNS): 11.1 µM
TGI (UACC-257 melanoma): 24 µM
TGI (UACC-62 melanoma): 20.7 µM
TGI (UO-31 renal): 17.7 µM

NCC(O)CNCC/C=C\C/C=C\C/C=C\C/C=C\C/C=C\C/C=C\CCCCC/C=C\CCNCC(O)CN (stereo not given)
TGI (786-0 renal): 3.07 µM
TGI (A498 renal): 3.34 µM
TGI (ACHN renal): 3.35 µM
TGI (BT-549 breast): 7.47 µM
TGI (CAKI-1 renal): 3.63 µM
TGI (COLO 205 colon): 3.41 µM
TGI (DU-145 prostate): 3.26 µM
TGI (EKVX NSCLC): 2.15 µM
TGI (HCT-116 colon): 3.18 µM
TGI (HCT-15 colon): 3.03 µM
TGI (HOP-62 NSCLC): 3.53 µM
TGI (HS 578T breast): 2.74 µM
TGI (K-562 leukemia): > 100 µM
TGI (MALME-3M melanoma): 4.34 µM
TGI (MDA-MB-231 breast): 3.18 µM
TGI (MDA-N): 3.09 µM
TGI (NCI-H226 lung): 13.4 µM
TGI (NCI/ADR-RES ovarian): 2.82 µM
TGI (OVCAR-3 ovarian): 3.42 µM
TGI (OVCAR-4 ovarian): 3.61 µM
TGI (OVCAR-5 ovarian): 3.41 µM
TGI (OVCAR-8 ovarian): 3.21 µM
TGI (PC-3 prostate): 3.49 µM
TGI (SF-295 CNS): 4.29 µM
TGI (SK-MEL-28 melanoma): 14 µM
TGI (SK-OV-3 ovarian): 5.59 µM
TGI (SN12C renal): 3.03 µM
TGI (SNB-75 CNS): 3.2 µM
TGI (TK-10 renal): 2.96 µM
TGI (UACC-257 melanoma): 4.43 µM
TGI (UO-31 renal): 3.72 µM
